The values below come from PubChem BioAssay AID1259408 (Genetic Toxicology Data Bank (GENE-TOX), 2018).

The source made the active and inactive calls. No rule for the calls is given here.

This data set relates to GENE-TOX genotoxicity assays, various organisms and cells. Put plainly: GENE-TOX mutagenicity studies.
Setting [1] is: Species/Cell Type: Human, Assay Type: Sister-chromatid exchange (SCE) in vitro, Assay Code: SC1T, Evaluation Type: Evaluation B (Post-1980).
Where [2] appears, read: Species/Cell Type: Salmonella typhimurium (one or more of the five standard strains: TA98, TA100, TA1535, TA1537, and TA1538), Assay Type: Histidine reverse gene mutation, Ames assay, Assay Code: SAL-, Evaluation Type: Evaluation A (Pre-1980).
[3] abbreviates: Species/Cell Type: Mammalian polychromatic erythrocytes, Assay Type: Micronucleus test, chromosome aberrations, Assay Code: MNTT, Evaluation Type: Evaluation A (Pre-1980).
The mark [4] stands for this setting: Species/Cell Type: Mouse, Sex: Male, Assay Type: Sperm morphology, Assay Code: SPI-, Evaluation Type: Evaluation A (Pre-1980).
[5] abbreviates: Species/Cell Type: Nonhuman, Assay Type: Sister-chromatid exchange (SCE) in vitro, Assay Code: SC2T, Evaluation Type: Evaluation B (Post-1980).
Where [6] appears, read: Species/Cell Type: Salmonella typhimurium (one or more of the five standard strains: TA98, TA100, TA1535, TA1537, and TA1538), Assay Type: Histidine reverse gene mutation, Ames assay, Assay Code: SALT, Evaluation Type: Evaluation A (Pre-1980).
Where [7] appears, read: Species/Cell Type: Bacillus subtilis (H17 vs M45), Assay Type: Rec-assay, spot test, DNA effects (bacterial DNA repair), Assay Code: REWT, Evaluation Type: Evaluation A (Pre-1980).

As to `CO[C@H](C(=O)[C@@H](O)[C@@H](C)O)[C@@H]1Cc2cc3cc(O[C@H]4C[C@@H](O[C@H]5C[C@@H](O)[C@H](O)[C@@H](C)O5)[C@H](O)[C@@H](C)O4)c(C)c(O)c3c(O)c2C(=O)[C@H]1O[C@H]1C[C@@H](O[C@H]2C[C@@H](O[C@H]3C[C@](C)(O)[C@H](O)[C@@H](C)O3)[C@@H](O)[C@@H](C)O2)[C@H](O)[C@@H](C)O1`, the mutagenic call (Species/Cell Type: Chinese hamster ovary (CHO) cells, Assay Type: Forward gene mutation at the HPRT locus, Assay Code: CHO+, Evaluation Type: Evaluation B (Post-1980)) is “active; positive”.

In the case of `CC(C)=O`, the mutagenic call runs as follows: (Species/Cell Type: Arabidopsis species, Assay Type: Gene mutation, Assay Code: ARM-, Evaluation Type: Evaluation A (Pre-1980)) “inactive; negative”; (Species/Cell Type: Fischer rat embryo (RLV/1706) cells, Assay Type: Cell transformation, viral enhanced, Assay Code: CTR-, Evaluation Type: Evaluation A (Pre-1980)) “inactive; negative”; under setting [1], “no conclusion”; (Species/Cell Type: Mammalian polychromatic erythrocytes, Assay Type: Micronucleus test, chromosome aberrations, Assay Code: MNT-, Evaluation Type: Evaluation B (Post-1980)) “inactive; negative”; (Species/Cell Type: Mouse embryo (AKR/ME) cells, Assay Type: Cell transformation, Assay Code: CTK-, Evaluation Type: Evaluation A (Pre-1980)) “inactive; negative”; (Species/Cell Type: Nonhuman, Assay Type: Chromosome aberrations in vitro, Assay Code: CY&-, Evaluation Type: Evaluation A (Pre-1980)) “inactive; negative”. Also, the mutagenic call (Species/Cell Type: Nonhuman, Assay Type: Sister-chromatid exchange (SCE) in vitro, Assay Code: SC2-, Evaluation Type: Evaluation A (Pre-1980)) was “inactive; negative”; the mutagenic call under setting [2] is “inactive; negative”; the mutagenic call (Species/Cell Type: Syrian hamster embryo (SHE) cells, Assay Type: Cell transformation, clonal assay, Assay Code: CTC-, Evaluation Type: Evaluation A (Pre-1980)) was “inactive; negative”.

As to `S=C1NCCN1`, the mutagenic call (Species/Cell Type: Escherichia coli WP2, Assay Type: Tryptophan reverse gene mutation, Assay Code: WP2-, Evaluation Type: Evaluation A (Pre-1980)) was “inactive; negative”; the mutagenic call (Species/Cell Type: Escherichia coli WP2 UVRA, Assay Type: Tryptophan reverse gene mutation, Assay Code: WPU-, Evaluation Type: Evaluation A (Pre-1980)) was “inactive; negative”; the mutagenic call under setting [3] is listed as “no conclusion”; the mutagenic call under setting [4] was “inactive; negative”; the mutagenic call under setting [5] is listed as “no conclusion”; the mutagenic call (Species/Cell Type: Rodents, Sex: Male, Assay Type: Dominant lethal test, Assay Code: DLT+, Evaluation Type: Evaluation A (Pre-1980)) was “active; positive”. Further, the mutagenic call is “active; positive” (Species/Cell Type: Salmonella typhimurium (one or more of the five standard strains: TA98, TA100, TA1535, TA1537, and TA1538), Assay Type: Histidine reverse gene mutation, Ames assay, Assay Code: SAL+, Evaluation Type: Evaluation A (Pre-1980)); “active; positive” (Species/Cell Type: Salmonella typhimurium, Assay Type: Forward and reverse gene mutation, host-mediated assay, Assay Code: HMA+, Evaluation Type: Evaluation A (Pre-1980)); “inactive; negative” (Species/Cell Type: Syrian hamster embryo (SA7/SHE) cells, Assay Type: Cell transformation, viral enhanced, Assay Code: CT7-, Evaluation Type: Evaluation A (Pre-1980)); “active; positive” (Species/Cell Type: Tradescantia species, Assay Type: Gene mutation, Assay Code: TRM+D, Dose Response: With dose response, Evaluation Type: Evaluation A (Pre-1980)). For the setting “Species/Cell Type: Nonhuman, Assay Type: In vivo carcinogenicity studies, Assay Code: CCG+, Evaluation Type: Evaluation A (Pre-1980)”, the call was “active; positive”.

Consider `Nc1cccc2cc3ccccc3nc12`, for which the mutagenic call runs as follows: (Species/Cell Type: Saccharomyces cerevisiae, Assay Type: Forward gene mutation, Assay Code: YEFT, Evaluation Type: Evaluation A (Pre-1980)) “no conclusion”; (Species/Cell Type: Saccharomyces cerevisiae, Assay Type: Reverse gene mutation, Assay Code: YERT, Evaluation Type: Evaluation A (Pre-1980)) “no conclusion”.

Regarding `CN(C)CCOc1ccc2c(c1)CC/C(=C\c1ncc([N+](=O)[O-])n1C)C2=O`, the mutagenic call is “active; positive” (Species/Cell Type: Drosophila melanogaster, Assay Type: Sex-linked recessive lethal gene mutation, Assay Code: SRL+, Evaluation Type: Evaluation A (Pre-1980)) and “active; positive” (Species/Cell Type: Saccharomyces cerevisiae, Assay Type: Mitotic recombination or gene conversion, Assay Code: YEC+, Evaluation Type: Evaluation A (Pre-1980)).

Consider `CCN(CCCl)CCCNc1ccnc2ccc(OC)cc12`, for which the mutagenic call (Species/Cell Type: Neurospora crassa, Assay Type: Reverse gene mutation, Assay Code: NER+, Evaluation Type: Evaluation A (Pre-1980)) was “active; positive”.

In the case of `O=C1OC2(c3cc(Br)c(O)c(Br)c3Oc3c2cc(Br)c(O)c3Br)c2c(Cl)ccc(Cl)c21`, the mutagenic call (Species/Cell Type: Bacillus subtilis (H17 vs M45), Assay Type: Rec-assay, spot test, DNA effects (bacterial DNA repair), Assay Code: REW-, Evaluation Type: Evaluation A (Pre-1980)) was “inactive; negative” and the mutagenic call (Species/Cell Type: Bacillus subtilis (H17 vs M45T), Assay Type: Rec-assay, spot test, DNA effects (bacterial DNA repair), Assay Code: REX+, Evaluation Type: Evaluation A (Pre-1980)) was “active; positive”.

Turning to `O=S1(=O)OC2(c3ccc(O)cc3Oc3cc(O)ccc32)c2ccccc21`, under setting [6], the mutagenic call is recorded as “no conclusion”.

As for `CCOC(=O)CSc1ccc2c3c(cccc13)C(=O)c1ccccc1-2`, the mutagenic call (Species/Cell Type: Salmonella typhimurium (one or more of the five standard strains: TA98, TA100, TA1535, TA1537, and TA1538), Assay Type: Histidine reverse gene mutation, Ames assay, Assay Code: SAL+*, Activation: With metabolic activation, Evaluation Type: Evaluation A (Pre-1980)) is “active; positive”.

On to `CCN(CCO)CCCNc1c2ccccc2nc2cc3ccccc3cc12`, for which the mutagenic call (Species/Cell Type: Chinese hamster ovary (CHO) cells, Assay Type: Forward gene mutation at the HPRT locus, Assay Code: CHOT, Evaluation Type: Evaluation B (Post-1980)) is given as “no conclusion”.

`O=C1O[C@H]([C@@H](O)CO)C(O)=C1O`: the mutagenic call by setting is: (Species/Cell Type: Human lymphocytes, Assay Type: Sister-chromatid exchange (SCE) in vitro, Assay Code: SCL+, Evaluation Type: Evaluation A (Pre-1980)) “active; positive”; (Species/Cell Type: Human lymphocytes, Assay Type: Sister-chromatid exchange (SCE) in vitro, Assay Code: SCLT, Evaluation Type: Evaluation B (Post-1980)) “no conclusion”; (Species/Cell Type: Human, Assay Type: Sister-chromatid exchange (SCE) in vitro, Assay Code: SC1+, Evaluation Type: Evaluation A (Pre-1980)) “active; positive”; under setting [1], “no conclusion”; under setting [3], “no conclusion”; under setting [4], “inactive; negative”. Further, the mutagenic call by setting is: (Species/Cell Type: Nonhuman, Assay Type: Sister-chromatid exchange (SCE) in vitro, Assay Code: SC2+, Evaluation Type: Evaluation A (Pre-1980)) “active; positive”; (Species/Cell Type: Nonhuman, Assay Type: Sister-chromatid exchange (SCE) in vitro, Assay Code: SC2+D, Dose Response: With dose response, Evaluation Type: Evaluation B (Post-1980)) “active; positive”; (Species/Cell Type: Nonhuman, Assay Type: Sister-chromatid exchange (SCE) in vivo, Assay Code: SC3T, Evaluation Type: Evaluation B (Post-1980)) “no conclusion”; under setting [6], “no conclusion”.

For `Cc1ccccc1N=Nc1ccc(N=Nc2c(O)ccc3ccccc23)c(C)c1`, the mutagenic call runs as follows: under setting [6], “no conclusion”; (Species/Cell Type: Syrian hamster embryo (SA7/SHE) cells, Assay Type: Cell transformation, viral enhanced, Assay Code: CT7+, Evaluation Type: Evaluation A (Pre-1980)) “active; positive”.

For `O=S(=O)(O)c1cc(S(=O)(=O)O)c2c(N=Nc3ccc(S(=O)(=O)O)c4ccccc34)c(O)ccc2c1`, the mutagenic call by setting is: under setting [7], “no conclusion”; (Species/Cell Type: Bacillus subtilis (H17 vs M45T), Assay Type: Rec-assay, spot test, DNA effects (bacterial DNA repair), Assay Code: REXT, Evaluation Type: Evaluation A (Pre-1980)) “no conclusion”; (Species/Cell Type: Saccharomyces cerevisiae, Assay Type: Mitotic recombination or gene conversion, Assay Code: YEC-, Evaluation Type: Evaluation A (Pre-1980)) “inactive; negative”.

On to `CCOP(=S)(OCC)Oc1ccc(S(C)=O)cc1` (configuration not stated), for which the mutagenic call runs as follows: under setting [7], “no conclusion”; (Species/Cell Type: Drosophila melanogaster, Assay Type: Sex-linked recessive lethal gene mutation, Assay Code: SRL-, Evaluation Type: Evaluation A (Pre-1980)) “inactive; negative”; (Species/Cell Type: Escherichia coli WP2 UVRA, Assay Type: Tryptophan reverse gene mutation, Assay Code: WPU-*, Activation: With metabolic activation, Evaluation Type: Evaluation A (Pre-1980)) “inactive; negative”; (Species/Cell Type: Escherichia coli polA (W3119 vs P3478), Assay Type: Rec-assay, DNA effects (bacterial DNA repair), Assay Code: RE1T, Evaluation Type: Evaluation A (Pre-1980)) “no conclusion”; (Species/Cell Type: Human diploid fibroblasts, Assay Type: Unscheduled DNA synthesis (UDS) in vitro, DNA effects, Assay Code: UDH-, Evaluation Type: Evaluation A (Pre-1980)) “inactive; negative”; under setting [5], “no conclusion”. Further, the mutagenic call is “inactive; negative” (Species/Cell Type: Saccharomyces cerevisiae, Assay Type: Mitotic recombination or gene conversion, Assay Code: YEH-, Evaluation Type: Evaluation A (Pre-1980)) and “inactive; negative” under setting [2].

With `Cc1ccc2c(C)c(C)[nH]c2c1`, the mutagenic call is “active; positive” (Species/Cell Type: Human lymphocytes, Assay Type: Sister-chromatid exchange (SCE) in vitro, Assay Code: SCL+, Evaluation Type: Evaluation B (Post-1980)) and “active; positive” (Species/Cell Type: Human, Assay Type: Sister-chromatid exchange (SCE) in vitro, Assay Code: SC1+, Evaluation Type: Evaluation B (Post-1980)).

Consider `OCc1ccccc1`, for which the mutagenic call (Species/Cell Type: Escherichia coli polA (W3119 vs P3478), Assay Type: Rec-assay, DNA effects (bacterial DNA repair), Assay Code: RE1-, Evaluation Type: Evaluation A (Pre-1980)) was “inactive; negative”.
